Data as given in patent US12692253B2, “Antimicrobial compounds and methods” (Curza Global, LLC, priority 2019, dated 2026).
Like-named read-outs stand apart in the source and are kept apart here.

Columns and labels:
[1] = test system: E. coli S30 extract (bacterial protein synthesis); experiment: E. coli S30 extract coupled transcription-translation luciferase assay (inhibition of bacterial protein synthesis); format: biochemical; settings: read-out: S30 IC50 (μM/% inhib.)
Protocol: E. coli S30 extract: Inhibition of bacterial protein synthesis was determined using the E. coli S30 Extract System for Circular DNA (Promega catalog #L-2010) and Luciferase Assay Reagent (Promega catalog #E1500) with slight modifications to a published protocol. Fyfe, C., Sutcliffe, J. A. and Grossman, T. H. (2012) “Development and characterization of a Pseudomonas aeruginosa in vitro coupled transcription-translation assay system for evaluation of translation inhibitors” J. Microbiol. Methods 90(3), 256-261.
Compounds were serial diluted in 0.5 mL microcentrifuge tubes by mixing and transferring 50 μL from the highest concentration to 50 μL of water, mixing and transferring 50 μL of this 2-fold dilution to 50 μL of water. This mixing and transferring was repeated so that there are a total of 8 tubes with serial dilutions of compound at 10× the desired screening concentration that are ultimately diluted to 1× by the addition of S30 luciferase synthesis mixture. Serial dilutions of compounds were added (2 μL) to wells in a black round bottom 96-well plate. Water (2 μL) was used as a “no inhibitor” control in 4 wells/plate. No DNA control reaction mixture (20 μL; see below) was used as a control in 4 wells/plate for background luminescence. S30 luciferase synthesis mixture (18 μL; see below) was added to wells with compounds or water mixture and incubated at 37° C. for 1 hour. Reactions were stopped by transferring to 4° C. refrigerator for 5 minutes then 25 μL of luciferase activity mix was added. Luminescence was measured using a BioTek Synergy HTX plate reader. % Inhibition was determined relative to no inhibitor controls. • S30 luciferase synthesis mixture: • 445 μL S30 extract, circular • 712 μL S30 Premix without amino acids • 4.45 μL pBESTluc™ DNA (1 μg/μL) • 78 μL complete amino acid mixture • 267 μL water • No DNA control: • 20 μL S30 extract, circular • 32 μL S30 Premix without amino acids • 7 μL complete amino acid mixture • 21 μL water Rabbit Reticulocyte lysate

[2] = target: Rabbit Reticulocyte Lysate (eukaryotic protein synthesis); experiment: Rabbit reticulocyte lysate luciferase assay (inhibition of eukaryotic protein synthesis); format: biochemical; settings: read-out: Rabbit reticulocyte IC50 (μM/% inhib.)
Protocol: Inhibition of eukaryotic protein synthesis was determined using the Rabbit Reticulocyte Lysate System, Nuclease-Treated from Promega (catalog #L-4960) with slight modifications to the manufacturer's protocol. Compounds were serial diluted in 0.5 mL microcentrifuge tubes by mixing and transferring 50 μL from the highest concentration to 50 μL of water, mixing and transferring 50 μL of this 2-fold dilution to 50 μL of water. This mixing and transferring was repeated so that there are a total of 8 tubes with serial dilutions of compound at 10× the desired screening concentration that are ultimately diluted to 1× by the addition of rabbit reticulocyte luciferase synthesis mixture. Serial dilutions of compounds were added (2.5 μL) to wells in a black round bottom 96-well plate. Water (2.5 μL) was used as a “no inhibitor” control in 4 wells/plate. No RNA control reaction mixture (2 μL; see below) was used as a control in 4 wells/plate for background luminescence. Rabbit reticulocyte luciferase synthesis mixture (22.5 μL; see below) was added to wells with compounds or water mixture and incubated at 30° C. for 90 minutes. Luciferase assay reagent (25 μL) was added with luminescence measured using a BioTek Synergy HTX plate reader. % Inhibition was determined relative to no inhibitor controls.
Rabbit Reticulocyte Luciferase Synthesis Mixture:
• 1,000 μL rabbit reticulocyte lysate • 5.7 μL Luciferase Control RNA (1 μg/μL) • 26 μL complete amino acid mixture • 395 μL water • No RNA Control • 70 μL rabbit reticulocyte lysate • 2 μL complete amino acid mixture • 28 μL water Minimum Inhibitory Concentration (MIC)

A. baumannn (Ab) = experiment: Broth microdilution minimum inhibitory concentration (MIC), CLSI; format: cell-based; settings: read-out: Ab + bicarb MIC
Protocol: (§1) A certified BSL-2 laboratory was used for testing. Compounds were evaluated using the broth microdilution minimum inhibitory concentration (MIC) and minimum bactericidal concentration (MBC) assays defined by Clinical and Laboratory Standards Institute (CLSI) in the M26-A guideline against S. aureus (Sa), E. coli (Ec), K. pneumoniae (Kp), A. baumannn (Ab), E. faecalis (Ef) and P. aeruginosa (Pa).
(§2) MICs were determined using the Clinical Laboratory and Standards Institute (CLSI) Broth Microdilution Method with slight modification. Clinical and Laboratory Standards Institute (2012). “Methods for dilution antimicrobial susceptibility tests for bacteria that grow aerobically; approved standard, 9th ed. M07-A9 Clinical and Laboratory Standards Institute, Wayne, PA” Serial two-fold dilutions of compounds are prepared in sterile clear round-bottom 96-well plates.
(§3) To prepare microdilution trays, two-fold dilutions of antimicrobial agent are prepared in growth medium: Cation-Adjusted Mueller-Hinton Broth (CAMHB), or CAMHB supplemented with sodium bicarbonate (6.25 or 25 mM final concentration prepared from a 1.0M stock solution) or CAMHB supplemented with heat inactivated human serum (Fisher Cat. #BP2657100) 0-50% by adding 200 µL of the highest concentration to be tested (64 μg/mL, for example) in row A, mixing and transferring 100 μL from row A to 100 μL growth medium in row B, then repeating the mixing and transferring through row H of the 96-well plate, discarding the excess […] remaining. This slight modification to the CLSI protocol enables evaluation of MICs for 3 compounds per plate in triplicate, albeit with only 8 compound dilutions (CLSI protocol enables 2 compounds in triplicate with 10 dilutions). Bacterial suspensions are added to a final concentration of 5×10^4 CFU/well by adding 5 μL of a 1:10 dilution of a 0.5 McFarland suspension (1×10^8 CFU/mL) for each bacterium evaluated. Bacterial suspensions were prepared using the growth method described by CLSI. Well-isolated colonies (3-5 from an agar plate) were selected using a sterile loop and used to inoculate a tube containing 4 mL of CAMHB. The cultures are incubated at 35±2° C. until it achieves or exceeds the turbidity of the 0.5 McFarland standard, determined by measuring A600 (usually two to six hours). When growth exceeds a 0.5 McFarland standard, the turbidity is adjusted with broth to be equivalent to a 0.5 McFarland standard.

E. coli (Ec) = experiment: as above; format: cell-based; settings: Escherichia coli, read-out: E. coli + bicarb MIC
Protocol: as §1, §2, §3

E. faecalis (Ef) = experiment: as above; format: cell-based; settings: Enterococcus faecalis, read-out: Ef + bicarb MIC
Protocol: as §1, §2, §3

P. aeruginosa (Pa) = experiment: as above; format: cell-based; settings: Pseudomonas aeruginosa, read-out: Pa MIC + bicarb
Protocol: as §1, §2, §3

S. aureus (Sa) = experiment: as above; format: cell-based; settings: Staphylococcus aureus, read-out: Sa + bicarb MIC
Protocol: as §1, §2, §3

[3] = class by IC50 or % inhibition @ 1 μM
[4] = growth medium supplemented with sodium bicarbonate
[5] = growth medium with sodium bicarbonate

| SMILES | IC50 [1, 3] | IC50 [2, 3] | MIC (A. baumannn (Ab); Acinetobacter baumannii) | MIC (E. coli (Ec); [4]) | MIC (E. faecalis (Ef); [4]) | MIC (P. aeruginosa (Pa); [4]) | MIC (S. aureus (Sa); [4]) | IC50 ([1]; % inhibition @ 1 μM) | IC50 ([2]; % inhibition @ 1 μM) | MIC (A. baumannn (Ab); A. baumannn, growth medium with sodium bicarbonate) | MIC (E. coli (Ec); [5]) | MIC (E. faecalis (Ef); [5]) | MIC (P. aeruginosa (Pa); [5]) | MIC (S. aureus (Sa); [5]) |
| --- | --- | --- | --- | --- | --- | --- | --- | --- | --- | --- | --- | --- | --- | --- |
| C[C@@H](Cc1ccc(-n2ccc(NC(=O)N3CCN(C(=O)C(C)(C)N)CC3)nc2=O)cc1)N1C[C@@H]2[C@@H](CN)[C@@H]2C1 [Compound 141] | < 0.5 µM | ≥ 1 µM | 8 to 32 µg/mL | < 8 µg/mL | < 8 µg/mL | < 8 µg/mL | < 8 µg/mL | – | – | – | – | – | – | – |
| CC(C)(N)C1CN(C(=O)Nc2ccn(-c3ccc(CN4C[C@@H]5[C@@H](N)[C@@H]5C4)cc3)c(=O)n2)CCO1 (stereo partly shown) [Compound 56] | ≥ 1 µM | ≥ 1 µM | > 32 µg/mL | 8 to 32 µg/mL | > 32 µg/mL | > 32 µg/mL | > 32 µg/mL | – | – | – | – | – | – | – |
| COC[C@@](C)(N)C(=O)N1CCN(C(=O)Nc2ccn(-c3ccc(CN4C[C@@H]5[C@@H](N)[C@@H]5C4)cc3)c(=O)n2)CC1 [Compound 53] | 0.5 to 1 µM | ≥ 1 µM | > 32 µg/mL | < 8 µg/mL | < 8 µg/mL | > 32 µg/mL | < 8 µg/mL | – | – | – | – | – | – | – |
| CC(N)[C@H]1[C@@H]2CN(Cc3ccc(-n4ccc(NC(=O)N5CCN(C(=O)C(C)(C)N)CC5)nc4=O)cc3)C[C@@H]21 (stereo partly shown) [Compound 73] | < 0.5 µM | ≥ 1 µM | > 32 µg/mL | < 8 µg/mL | 8 to 32 µg/mL | > 32 µg/mL | < 8 µg/mL | – | – | – | – | – | – | – |
| CC(C)(N)CC1CCN(C(=O)Nc2ccn(-c3ccc(CN4C[C@@H]5[C@@H](N)[C@@H]5C4)cc3)c(=O)n2)CC1 [Compound 48] | 0.5 to 1 µM | ≥ 1 µM | > 32 µg/mL | < 8 µg/mL | 8 to 32 µg/mL | > 32 µg/mL | < 8 µg/mL | – | – | – | – | – | – | – |
| CC(Cc1ccc(-n2ccc(NC(=O)N3CCN(C(=O)C(C)(C)N)CC3)nc2=O)cc1)NCC1[C@H]2CNC[C@@H]12 (stereo partly shown) [Compound 204] | – | – | – | – | – | – | – | ≥ 1 µM | ≥ 1 µM | > 32 µg/mL | < 8 µg/mL | > 32 µg/mL | > 32 µg/mL | < 8 µg/mL |
| CC(C)(N)C(=O)N1CCN(C(=O)Nc2ccn(-c3ccc(CN4CC5(CCC5N)C4)cc3)c(=O)n2)CC1 (stereo not shown) [Compound 60] | < 0.5 µM | ≥ 1 µM | > 32 µg/mL | < 8 µg/mL | > 32 µg/mL | > 32 µg/mL | < 8 µg/mL | – | – | – | – | – | – | – |
| CNC[C@@H]1[C@H]2CN(Cc3ccc(-n4ccc(NC(=O)N5CCN(C(=O)C(C)(C)N)CC5)nc4=O)cc3)C[C@@H]12 [Compound 75] | < 0.5 µM | ≥ 1 µM | > 32 µg/mL | < 8 µg/mL | 8 to 32 µg/mL | > 32 µg/mL | < 8 µg/mL | – | – | – | – | – | – | – |
| CC(C)(N)C(=O)N1CCN(C(=O)Nc2ccn(-c3ccc(CN4C5CCC4CC(N)C5)cc3)c(=O)n2)CC1 (stereo not shown) [Compound 58] | < 0.5 µM | ≥ 1 µM | > 32 µg/mL | < 8 µg/mL | 8 to 32 µg/mL | > 32 µg/mL | < 8 µg/mL | – | – | – | – | – | – | – |
| CC(C)(N)C(=O)N1CCN(C(=O)Nc2ccn(-c3ccc(CN4C[C@@H]5[C@@H](N)[C@@H]5C4)cc3)c(=O)n2)C(c2ccccc2)C1 (stereo partly shown) [Compound 27] | < 0.5 µM | ≥ 1 µM | – | < 8 µg/mL | – | > 32 µg/mL | 8 to 32 µg/mL | – | – | – | – | – | – | – |
| C[C@](N)(CO)C(=O)N1CCN(C(=O)Nc2ccn(-c3ccc(CN4CC5(CC(N)C5)C4)cc3)c(=O)n2)CC1 [Compound 36] | < 0.5 µM | ≥ 1 µM | > 32 µg/mL | < 8 µg/mL | > 32 µg/mL | > 32 µg/mL | – | – | – | – | – | – | – | – |
| C[C@](N)(CO)C(=O)N1CCN(C(=O)Nc2ccn(-c3ccc(CN4C[C@@H]5[C@@H](N)[C@@H]5C4)cc3)c(=O)n2)CC1 [Compound 4] | < 0.5 µM | ≥ 1 µM | > 32 µg/mL | < 8 µg/mL | < 8 µg/mL | > 32 µg/mL | – | – | – | – | – | – | – | – |
| CC(C)(N)C(=O)N1CCN(C(=O)Nc2ccn(-c3ccc(CN4CC5(CNC5)C4)cc3)c(=O)n2)CC1 [Compound 46] | < 0.5 µM | ≥ 1 µM | – | < 8 µg/mL | > 32 µg/mL | > 32 µg/mL | 8 to 32 µg/mL | – | – | – | – | – | – | – |
| CC(C)(N)C(=O)N1CCN(C(=O)Nc2ccn(-c3ccc(CN4CC5(CCNCC5)C4)cc3)c(=O)n2)CC1 [Compound 81] | < 0.5 µM | ≥ 1 µM | > 32 µg/mL | < 8 µg/mL | – | > 32 µg/mL | 8 to 32 µg/mL | – | – | – | – | – | – | – |
| CC(C)(N)C(=O)N1CCN(C(=O)Nc2ccn(-c3ccc(CCN4CCC5CC5(N)C4)cc3)c(=O)n2)CC1 (stereo not shown) [Compound 93] | < 0.5 µM | ≥ 1 µM | > 32 µg/mL | < 8 µg/mL | < 8 µg/mL | < 8 µg/mL | – | – | – | – | – | – | – | – |
| CC(C)(N)C(=O)N1CCN(C(=O)Nc2ccn(-c3ccc(CN4CCC5(CCC5N)CC4)cc3)c(=O)n2)CC1 (stereo not shown) [Compound 38] | < 0.5 µM | ≥ 1 µM | > 32 µg/mL | – | 8 to 32 µg/mL | – | – | – | – | – | – | – | – | – |
| C[C@](N)(CO)C(=O)N1CCN(C(=O)Nc2ccn(-c3cccc(CCN4C[C@@H]5[C@@H](N)[C@@H]5C4)c3)c(=O)n2)CC1 [Compound 89] | ≥ 1 µM | – | – | 8 to 32 µg/mL | – | > 32 µg/mL | > 32 µg/mL | – | – | – | – | – | – | – |
